{
  "source": "patent US20240366624A1",
  "about": "“METHODS AND COMPOSITIONS FOR TREATING THROMBOTIC DISEASE” (Washington University, priority 2023, published 2024)",
  "test_system": "WT (C57BL/6) mice",
  "assay": "Ex vivo platelet activation and aggregation after intravenous injection",
  "type": "in vivo, mouse",
  "protocol": "FIG. 19(A-Q) is an exemplary embodiment of B12-5 having an antithrombotic effect without prolonging tail bleeding times in mice in accordance with the present disclosure. FIG. 19(A-C): Ex vivo effects of B12-5. […] One hour later, blood was drawn, followed by isolating platelets. P-selectin exposure (FIG. 19A) and αIIbβ3 integrin activation (FIG. 19B) were assessed in flow cytometry. FIG. 19C: Platelet aggregation was measured after treatment with 0.025 U/mL thrombin. The data represent the mean±SD (n=4). FIG. 19D: The plasma levels of B12-5 were analyzed by liquid chromatography-tandem mass spectrometry (LC-MS/MS) after intravenous injection of the compound (5 μg/g BW) into WT mice and quantified by comparison with a standard curve of B12-5 (mean±SD, n=3). […] The median integrated fluorescence intensities of anti-CD42c (F platelet) and anti-fibrin (F fibrin) antibodies (n=37-42 arterioles in 6 mice per group). Quantification of the antibody signal at a different time point after laser injury. […] Thirty minutes later, tail bleeding times and Hb contents were measured after amputation of the tail tip. […] Twenty-three hours later, neurological deficits were assessed by the Bederson score and grip test, and infarct volume was measured as described in Methods. […] Twenty-three hours later, the neurological deficit and infarct volume were measured as described above. […]",
  "data": [
    {"compound": "O=C(CSc1nc(O)cc(O)n1)N1c2ccccc2Sc2ccccc21", "note": "[B12-5]", "values": [
      {"measurement": "inhibitory effects ex vivo", "setting": "2 μg/g BW, data not shown", "result": "did not show inhibitory effects"},
      {"measurement": "P-selectin exposure, αIIbβ3 integrin activation, and aggregation ex vivo", "setting": "iv 5 μg/g BW, blood drawn 1 hour later", "result": "significantly inhibited"}
    ]}
  ]
}
